Experimental data: PMC12304826, “Redirecting the Peptide Cleavage Causes Protease Inactivation” (Angewandte Chemie (International Ed. in English), 2025)

Biological target: T1, human cathepsin K (Homo sapiens, UniProt P43235)
T1 construct: purchased Enzo Life Sciences, Lörrach, Germany
T1 sequence (P43235 115-329): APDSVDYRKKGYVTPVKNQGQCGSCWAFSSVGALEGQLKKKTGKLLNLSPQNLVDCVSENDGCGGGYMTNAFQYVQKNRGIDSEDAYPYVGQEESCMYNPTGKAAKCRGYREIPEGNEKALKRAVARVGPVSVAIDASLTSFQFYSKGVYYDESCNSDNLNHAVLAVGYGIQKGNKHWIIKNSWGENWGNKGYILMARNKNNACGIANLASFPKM
Assay: Cathepsin K inhibition assay (Cbz-Leu-Arg-AMC)
Type: biochemical
Details: 20 µM inhibitor, 60 min; read-out: Residual activity @ 20 µM (%) Cat K
Description: 1. Enzyme Inhibition Assays and Kinetic Data of Inhibition of Cathepsins B, L, K and S General. Human cathepsins were assayed either fluorimetrically or spectrophotometrically as noted below. The 10 mM inhibitor solutions were prepared in DMSO. The final concentration of DMSO in all assays was 2%. Non-linear regressions were conducted with GraFit 5. Residual cathepsin activity at an inhibitor concentration of 20 µM was determined from duplicate measurements based on the product formation after 60 min. Concentration dependent measurements were performed in duplicate measurements with five different inhibitor concentrations when the residual cathepsin activity in the presence of 20 µM inhibitor was below 70% (cathepsin B) or below 50% (cathepsins cathepsins L, K, and S). Progress curves were monitored for 60 min. First-order rate constants, kobs, were determined by non-linear regression following the equation [P] = vi × (1 – exp(-kobs × t))/kobs + d, where [P] is the product concentration, vi is the initial product formation rate, kobs is the observed first-order rate constant, and d is the offset. Mean values of kobs were plotted versus corresponding inhibitor concentrations [I], and second-order rate constants of inactivation, kinac/Ki, were obtained by linear regression. The equation kobs/[I] = (kinac/Ki)/(1 + [S]/Km) was used, where [S] is the substrate concentration and Km is the Michaelis-Menten constant. Standard errors (SE) refer to the linear regression. […] Cathepsin K inhibition assay.[1] Human recombinant cathepsin K (Enzo Life Sciences, Lörrach, Germany) was assayed fluorimetrically on a Monaco Safas spectrofluorometer flx or a Fluostar OPTIMA plate reader (BMG Labtech, Ortenberg, Germany). The wavelength for excitation was 360 nm and for emission 440 nm. The reactions were followed at 25 °C. A human cathepsin K stock solution of 23 µg/mL in 50 mM sodium acetate pH 5.5, 50 mM NaCl, 0.5 mM EDTA, 5 mM DTT was diluted 1:100 with assay buffer (100 mM sodium citrate pH 5.0, 100 mM NaCl, 1 mM EDTA, 0.01% CHAPS) containing 5 mM DTT and incubated for 30 min at 37 °C. A 10 mM stock solution of the 7-amino-4-methyl-coumarin (AMC)-based fluorogenic substrate Cbz-Leu-Arg-AMC was prepared in DMSO. The final concentration of the substrate was 40 μM (= 13.3 Km). When using the spectrofluorometer, into a cuvette containing 960 μL assay buffer, inhibitor solution and DMSO in a total volume of 16 μL, and 4 μL of the substrate solution were added and mixed. The reaction was initiated by adding 20 µL of the cathepsin K solution. When using the plate reader, into a well containing 192 µL assay buffer, inhibitor solution and DMSO in a total volume of 3.2 µL and 0.8 µL of the substrate solution were added and mixed. The reaction was initiated by adding 4 µL of the cathepsin K solution.
Cathepsin S inhibition assay.[2] […]
DTT, 0.5% Triton X-100 and 30% glycerol was diluted 1:100 with a 50 mM sodium phosphate buffer pH 6.5, 50 mM NaCl, 2 mM EDTA, 0.01% Triton X-100 and 5 mM DTT and incubated for 60 min at 37 °C. A 10 mM stock solution of the fluorogenic substrate Cbz-Phe-Arg-AMC was prepared in DMSO.
The assay was performed with a final substrate concentration of 40 µM (= 0.74 Km). When using the spectrofluorometer, into a cuvette containing 920 μL assay buffer, inhibitor solution and DMSO in a total volume of 16 μL, and 4 μL of the substrate solution were added and mixed. The reaction was initiated by adding 60 μL of the cathepsin S solution. When using the plate reader, into a well containing 188 µL assay buffer, inhibitor solution and DMSO in a total volume of 3.2 µL and 0.8 µL of the substrate solution were added and mixed. The reaction was initiated by adding […] of the cathepsin S solution.

CC(C)CC(C(=O)NC(Cc1ccccc1)C(=O)O)N(C)C(=O)Oc1ccc(Cl)cc1 (stereo not shown) [Compound 14]
remaining activity at 20 µM: 76%
